The text below walks through data of publication PMC10396955, “2-Oxabicyclo[2.1.1]hexanes as saturated bioisosteres of the ortho-substituted phenyl ring” (Nature Chemistry, 2023).

A short description of data set [1]: Kinetic solubility in phosphate-buffered saline, pH 7.4. The data set is classed as physicochemical. Particulars: for solubility at 2 h: 25 °C, pH 7.4, aqueous buffer, kinetic from dmso stock. As to the method: Analysis of Aqueous Solubility […]
compound (Ondansetron) were assessed for kinetic solubility in phosphate-buffered saline, pH […]
Phosphate buffered saline, pH 7.4 (Sigma-Aldrich, USA; Cat #P3813) […]
MultiScreen HTS 96 Well Filter Plates (Millipore, Ireland; Cat # MSGVS2210) […]
Matrix Multichannel Electronic Pipette 2-125 µL, 5-250 µL, 15-1250 µL (Thermo Scientific, […]
Vacuum pump (Millipore, USA; Model # XX5500000)
The measurements were performed using SpectraMax Plus reader in UV-Vis mode. Acquisition and analysis of the data were performed using SoftMax Pro v.5.4 (Molecular Devices) and Excel […]
Kinetic solubility assay was performed according to the Enamine’s aqueous solubility SOP.
Briefly, using a 20 mM stock solution of the compound in 100% DMSO dilutions were prepared to a theoretical concentration of 400 μM in duplicates in phosphate-buffered saline pH 7.4 […]
for two hours and then filtered through HTS filter plates using a vacuum manifold. The filtrates of test compounds were diluted 2-fold with acetonitrile with 2% DMSO before measuring.
In parallel, compound dilutions in acetonitrile/PBS (1:1) were prepared to theoretical […]
DMSO to generate calibration curves. Ondansetron was used as reference compound to control proper assay performance. 200 μl of each sample was transferred to 96-well plate and measured in 200-550 nm range with 5 nm step.
The concentrations of compounds in PBS filtrate are calculated using a dedicated Microsoft Excel calculation script. Proper absorbance wavelengths for calculations are selected for each compound manually based on absorbance maximums (absolute absorbance unit values for the minimum and maximum concentration points within 0 – 3 OD range). Each of the final datasets is additionally visually evaluated by the operator and goodness of fit (R2) is calculated for each calibration curve. The effective range of this assay is approximately 2-400 μM and the […]

Data set [2] can be described thus: Metabolic stability in human liver microsomes. The conditions noted are these: both sexes. It is filed as in vitro ADME. As to the method: (§1) The data acquisition and system control was performed using Analyst 1.6.3 software from AB Sciex. Methods Microsomal incubations were carried out in 96-well plates in 5 aliquots of 30 μL each (one for each time point). […] In the control reactions the NADPH-cofactor system was substituted with phosphate buffer. […] Each reaction was performed in duplicates. Five time points over 40 minutes were analyzed. The reactions were stopped by adding 4 volumes of methanol containing internal standard to incubation aliquots, followed by protein sedimentation by centrifuging at 5500 rpm for 4 minutes. […]. Supernatants were analyzed using the HPLC system coupled with tandem mass spectrometer. […] In some cases, the last time point is excluded from the calculations to ensure acceptable logarithmic linearity of decay.
On the technique in general: Liver microsomes are vesicles of endoplasmic reticulum, rich in cytochrome P450 enzymes.

For the next data set, the system named is human liver microsomes. Put plainly: Metabolic stability in human liver microsomes. The data set is classed as in vitro ADME. As for the experimental part:
as §1

Setting [3] is: phosphate-buffered saline, Table S1, incubation 1, read-out: PBS solubility, pH 7.4, Incubation 1.
The mark [4] stands for this setting: phosphate-buffered saline, Table S1, incubation 2, read-out: PBS solubility, pH 7.4, Incubation 2.
Setting [5] is: phosphate-buffered saline, experimental kinetic solubility in phosphate-buffered saline at pH 7.4, Fig. 3, read-out: Solubility.
Setting [6] is: human, liver microsomes, pH 7.4, human liver microsomes, 2 μM, 37 °C, with NADPH, 7 min.
Setting [7] is: human, liver microsomes, pH 7.4, human liver microsomes, 2 μM, 37 °C, with NADPH, 15 min.
[8] abbreviates: human, liver microsomes, pH 7.4, human liver microsomes, 2 μM, 37 °C, with NADPH, 25 min, read-out: % Remaining, Mean of 2.
[9] abbreviates: human, liver microsomes, pH 7.4, human liver microsomes, 2 μM, 37 °C, with NADPH, 40 min, read-out: % Remaining, Mean of 2.
Where [10] appears, read: human, liver microsomes, pH 7.4, human liver microsomes, 0.42 mg protein per ml, Table S3, * approximate due to high stability, read-out: Clint.
Setting [11] is: human, liver microsomes, pH 7.4, human liver microsomes, * approximate due to high stability, read-out: t1/2.
Setting [12] is: pH 7.4, human liver microsomes, no NADPH cofactor, 40 min, ** instability partially or completely not determined by CYP450 activity, read-out: % Remaining without cofactor, Mean of 2.
Setting [13] is: pH 7.4, human liver microsomes, elimination constant, * approximate due to high stability, read-out: kel (converted).
The mark [14] stands for this setting: PBS solubility, pH 7.4, Incubation 1.
[15] abbreviates: PBS solubility, pH 7.4, Incubation 2.
The mark [16] stands for this setting: human, microsomes, pH 7.4, % Remaining without cofactor, Mean of 2.
Setting [17] is: human, microsomes, pH 7.4, % Remaining, Mean of 2.
The mark [18] stands for this setting: human, microsomes, pH 7.4, Clint.
Setting [19] is: human, microsomes, pH 7.4, t1/2.

≈ marks a conversion by molar mass, not a printed value. Read-outs that look alike come from different tables or passages of the source.

As to `Cn1cc(C(=O)N[C@@H]2[C@@H]3CC[C@@]2(c2cc(F)c(F)c(F)c2)C3)c(C(F)F)n1` (relative stereo) [Compound 28], the solubility (as a rule, the dissolved amount per volume that the medium holds) at 2 h in data set [1] (setting [3]) came to 35 µM (≈ 13.5 µg/mL); in data set [1] (setting [4]) it was 33 µM (≈ 12.7 µg/mL); in data set [1] (setting [5]), 34 µM (≈ 13.1 µg/mL). The share remaining at […], 2 µM in data set [2] (setting [6]) came to 78%; in data set [2] (setting [7]), 72%. Moreover, the amount remaining at 25 min, 2 µM in data set [2] (setting [8]) was 57%. In addition, the values for the fraction remaining at 40 min, 2 µM in data set [2] (setting [9]) and in data set [2] (setting [12]) were 55% and 99%, respectively. Further, the microsomal CLint at 2 µM in data set [2] (setting [10]) was 35 µL/min/mg. Also, in data set [2] (setting [11]), the half-life at 2 µM turned out to be 0.79 h. The k el at 2 µM in data set [2] (setting [13]) is 0.00025 s⁻¹. Further, in the data set with human liver microsomes (human liver microsomes), the CIint, intrinsic clearance came to 35 µL/min/mg.
In the case of `Cn1cc(C(=O)N[C@@H]2[C@H]3C[C@]2(c2cc(F)c(F)c(F)c2)CO3)c(C(F)F)n1` (relative stereo) [Compound 29], the figures for the solubility at 2 h in data set [1] (setting [3]), in data set [1] (setting [4]) and in data set [1] (setting [5]) were 151 µM (≈ 58.5 µg/mL), 158 µM (≈ 61.2 µg/mL) and 155 µM (≈ 60 µg/mL), respectively. Further, the fraction remaining at […], 2 µM in data set [2] (setting [6]) amounted to 106%; in data set [2] (setting [7]), 93%. In addition, the amount remaining at 25 min, 2 µM in data set [2] (setting [8]) was found to be 83%. The fraction remaining at 40 min, 2 µM was 72% in data set [2] (setting [9]) and 89% in data set [2] (setting [12]). The microsomal CLint at 2 µM in data set [2] (setting [10]) came out at 23 µL/min/mg. For the same compound, the half-life at 2 µM in data set [2] (setting [11]) stood at 1.22 h. Moreover, the k el at 2 µM in data set [2] (setting [13]) is 0.00015 s⁻¹. In the data set with human liver microsomes (human liver microsomes), this compound had a CIint, intrinsic clearance of 23 µL/min/mg.
With `O=C(N[C@@H]1[C@@H]2CC[C@@]1(c1ccc(Cl)cc1)C2)c1cccnc1Cl` (relative stereo) [Compound 30], the “increase of solubility relative to boscalid” value in data set [1] (kinetic solubility, PBS pH 7.4) is ~ 50%. In addition, the solubility at 2 h in data set [1] (setting [3]) is 17 µM (≈ 5.9 µg/mL); in data set [1] (setting [4]), 18 µM (≈ 6.25 µg/mL); in data set [1] (phosphate-buffered saline, Table S1, mean of 2 incubations, 2 h, 2% DMSO, effective range approx. 2-400 μM, read-out: PBS solubility, pH 7.4, Mean), 17 µM (≈ 5.9 µg/mL); in data set [1] (setting [5]), 17 ± 0.3 µM (≈ 5.9 µg/mL). For the same compound, the values for the amount remaining at […], 2 µM in data set [2] (setting [6]) and in data set [2] (setting [7]) were 94% and 95%, respectively. In data set [2] (setting [8]), the share remaining at 25 min, 2 µM turned out to be 90%. The share remaining at 40 min, 2 µM was 80% in data set [2] (setting [9]) and 71% in data set [2] (setting [12]). The microsomal CLint at 2 µM in data set [2] (setting [10]) stood at 12 µL/min/mg. In data set [2] (setting [11]), the half-life at 2 µM was determined as 2.31 h. In addition, the k el at 2 µM in data set [2] (setting [13]) was 8.33e-05 s⁻¹. In addition, the CIint, intrinsic clearance in the data set with human liver microsomes (human liver microsomes) came out at 12 µL/min/mg.
Take `O=C(N[C@@H]1[C@H]2C[C@]1(c1ccc(Cl)cc1)CO2)c1cccnc1Cl` (relative stereo) [Compound 31]: the solubility at 2 h was 148 µM (≈ 51.7 µg/mL) in data set [1] (setting [3]), 157 µM (≈ 54.8 µg/mL) in data set [1] (setting [4]) and 152 µM (≈ 53.1 µg/mL) in data set [1] (setting [5]). Also, the fraction remaining at […], 2 µM in data set [2] (setting [6]) was 107%; in data set [2] (setting [7]), 110%. In addition, in data set [2] (setting [8]), the share remaining at 25 min, 2 µM is 107%. Besides, the values for the share remaining at 40 min, 2 µM in data set [2] (setting [9]) and in data set [2] (setting [12]) were 108% and 85%, respectively. For the same compound, the microsomal CLint at 2 µM was around 3 µL/min/mg in data set [2] (setting [10]) and 3 µL/min/mg in data set [2] (human, liver microsomes, pH 7.4, human liver microsomes, Fig. 3, read-out: CIint, intrinsic clearance). Further, the half-life at 2 µM in data set [2] (setting [11]) was around 8.09 h. The CIint, intrinsic clearance with human liver microsomes (human liver microsomes) came out at 3 µL/min/mg.
Turning to `O=C(Nc1ccccc1-c1ccc(Cl)cc1)c1cccnc1Cl` [Boscalid, reference compound], the figures for the solubility at 2 h in data set [1] (setting [14]), in data set [1] (setting [15]) and in data set [1] (Solubility) were 9 µM (≈ 3.09 µg/mL), 13 µM (≈ 4.46 µg/mL) and 11 µM (≈ 3.78 µg/mL), respectively. In addition, the share remaining at 40 min, 2 µM in data set [2] (setting [16]) worked out at 59%; in data set [2] (setting [17]) it was 66%. Also, the fraction remaining at 25 min, 2 µM in data set [2] (setting [17]) stood at 75%. This compound yielded a microsomal CLint at 2 µM in data set [2] (setting [18]) of 26 µL/min/mg. In data set [2] (setting [19]), this compound returned a half-life at 2 µM of 1.06 h. The k el at 2 µM in data set [2] (human, pH 7.4) was 0.000183 s⁻¹. In the data set on human liver microsomes (human, microsomes), this compound returned a CIint, intrinsic clearance of 26 µL/min/mg.
Regarding `Cn1cc(C(=O)Nc2ccccc2-c2cc(F)c(F)c(F)c2)c(C(F)F)n1` [Fluxapyroxad, reference compound], the figures for the solubility at 2 h in data set [1] (setting [14]), in data set [1] (setting [15]) and in data set [1] (Solubility) were 24 µM (≈ 9.15 µg/mL), 27 µM (≈ 10.3 µg/mL) and 25 µM (≈ 9.53 µg/mL), respectively. The share remaining at 40 min, 2 µM in data set [2] (setting [16]) worked out at 79%; in data set [2] (setting [17]), 63%. In addition, the share remaining at 25 min, 2 µM in data set [2] (setting [17]) stood at 73%. The compound further came in with a microsomal CLint at 2 µM in data set [2] (setting [18]) of 28 µL/min/mg. In data set [2] (setting [19]), this compound gave a half-life at 2 µM of 0.983 h. Also, the k el at 2 µM in data set [2] (human, pH 7.4) was 0.0002 s⁻¹. In addition, the CIint, intrinsic clearance in the data set with human liver microsomes (human, microsomes) amounted to 28 µL/min/mg.
